Measurements as given in patent US20020052295A1, “Diacyl derivatives of propylene diamine having herbicidal activity” (priority 1999, published 2002).

How the values were obtained:
SETFA [1] = assay: Pre-emergence herbicidal activity on SETFA (giant foxtail); format: in vivo, Setaria faberi
Summary of the method: (§1)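 Steps: sterilized fertilized topsoil potted; seeds sown, covered; compound (50:50 acetone/water dilution) applied to soil surface; 0.64 cm overhead irrigation; greenhouse 30/21 °C day/night; % inhibition vs untreated scored at ~14 d; GR80 calculated.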

CONAR [2] = assay: Post-emergence herbicidal activity on CONAR (field bindweed); format: in vivo, Convolvulus arvensis; conditions: post-emergence spray; lowest tested rate with 80% or greater inhibition; about 14 days after treatment
Summary of the method: (§2)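 Seeds are sown in topsoil, covered with topsoil/Rediearth, and subirrigated until plants reach treatment stage (typically 9 to 14 days). Plants are then sprayed with compound in 50:50 acetone and water at 3,100 l/ha. Inhibition is rated against untreated plants at about 14 days.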

SETFA [3] = assay: Post-emergence herbicidal activity on SETFA (giant foxtail); format: in vivo, Setaria faberi; conditions: post-emergence spray; lowest tested rate with 80% or greater inhibition; about 14 days after treatment
Summary of the method: as §2

SORVU [4] = assay: Pre-emergence herbicidal activity on SORVU (shattercane); format: in vivo, Sorghum vulgare
Summary of the method: as §1

CHEAL [5] = assay: Post-emergence herbicidal activity on CHEAL (common lambsquarters); format: in vivo, Chenopodium album; conditions: post-emergence spray; lowest tested rate with 80% or greater inhibition; about 14 days after treatment
Summary of the method: as §2

monocotyledonous species = assay: Pre-emergence test (later test), GR80 on monocotyledonous species; format: in vivo; conditions: average over monocotyledonous species
Excerpt: (§3) All such uses, and the biological activity enabling such uses, are embraced by the term “herbicidal” herein. Tables 15 and 16 summarize results of tests conducted as described below to determine the pre-emergence herbicidal activity, in the form of a GR80 value, of illustrative compounds of this invention. […] Where herbicidal activity was evident but 80% inhibition was not achieved at the highest rate tested (typically 1000 g/ha), an asterisk (*) is shown in the following tables. Herbicidal activity evident in the form of symptoms of phytotoxicity, in the absence of at least 80% inhibition at any rate, is indicated in the tables by “phyto”. A blank cell in the following tables indicates no herbicidal or phytotoxic response at any rate tested.
(§4) The pre-emergence tests were conducted by the following procedure. Topsoil was sieved to pass through a 1.27 cm screen. Fertilizer was added to the topsoil and the mixture was then sterilized by heating. The topsoil mixture was placed in a pot and compacted to a depth of 1.0 to 1.25 cm from the top of the pot. Seeds of each of several monocotyledonous and dicotyledonous annual plant species were placed on top of the soil. […]
(§5) Approximately 14 days after planting and treating, the plants were observed and herbicidal efficacy recorded as percent inhibition by comparison with untreated plants. […]

PANMI [6] = assay: Post-emergence herbicidal activity on PANMI (wild proso millet); format: in vivo, Panicum miliaceum; conditions: post-emergence spray; lowest tested rate with 80% or greater inhibition; about 14 days after treatment
BRAPP [7] = assay: Pre-emergence herbicidal activity on BRAPP (broadleaf signalgrass); format: in vivo, Brachiaria platyphylla
Summary of the method: as §1

AMARE [8] = assay: Post-emergence herbicidal activity on AMARE (redroot pigweed); format: in vivo, Amaranthus retroflexus; conditions: post-emergence spray; lowest tested rate with 80% or greater inhibition; about 14 days after treatment
Summary of the method: as §2

AMARE [9] = assay: Pre-emergence herbicidal activity on AMARE (redroot pigweed); format: in vivo, Amaranthus retroflexus
Summary of the method: as §1

DIGSA [10] = assay: Post-emergence herbicidal activity on DIGSA (large crabgrass); format: in vivo, Digitaria sanguinalis; conditions: post-emergence spray; lowest tested rate with 80% or greater inhibition; about 14 days after treatment
SORHA [11] = assay: Pre-emergence herbicidal activity on SORHA (johnsongrass, seedling); format: in vivo, Sorghum halepense
Summary of the method: as §1

PANDI [12] = assay: Post-emergence herbicidal activity on PANDI (fall panicum); format: in vivo, Panicum dichotomiflorum; conditions: post-emergence spray; lowest tested rate with 80% or greater inhibition; about 14 days after treatment
Summary of the method: as §2

SOLNI [13] = assay: Pre-emergence herbicidal activity on SOLNI (black nightshade); format: in vivo, Solanum nigrum
Summary of the method: as §1

SOLNI [14] = assay: Post-emergence herbicidal activity on SOLNI (black nightshade); format: in vivo, Solanum nigrum; conditions: post-emergence spray; lowest tested rate with 80% or greater inhibition; about 14 days after treatment
Summary of the method: as §2

ABUTH [15] = assay: Pre-emergence herbicidal activity on ABUTH (velvetleaf); format: in vivo, Abutilon theophrasti
Summary of the method: as §1

DATST [16] = assay: Pre-emergence herbicidal activity on DATST (jimsonweed); format: in vivo, Datura stramonium
Summary of the method: as §1

CHEAL [17] = assay: Pre-emergence herbicidal activity on CHEAL (common lambsquarters); format: in vivo, Chenopodium album
Summary of the method: as §1

PANMI [18] = assay: Pre-emergence herbicidal activity on PANMI (wild proso millet); format: in vivo, Panicum miliaceum
Summary of the method: as §1

SORHA [19] = assay: Post-emergence herbicidal activity on SORHA (johnsongrass, seedling); format: in vivo, Sorghum halepense; conditions: post-emergence spray; lowest tested rate with 80% or greater inhibition; about 14 days after treatment
Summary of the method: as §2

SORVU [20] = assay: Post-emergence herbicidal activity on SORVU (shattercane); format: in vivo, Sorghum vulgare; conditions: post-emergence spray; lowest tested rate with 80% or greater inhibition; about 14 days after treatment
Summary of the method: as §2

DATST [21] = assay: Post-emergence herbicidal activity on DATST (jimsonweed); format: in vivo, Datura stramonium; conditions: post-emergence spray; lowest tested rate with 80% or greater inhibition; about 14 days after treatment
Summary of the method: as §2

DIGSA [22] = assay: Pre-emergence herbicidal activity on DIGSA (large crabgrass); format: in vivo, Digitaria sanguinalis
Summary of the method: as §1

ECHCG [23] = assay: Pre-emergence herbicidal activity on ECHCG (barnyardgrass); format: in vivo, Echinochloa crus-galli
Summary of the method: as §1

POROL [24] = assay: Pre-emergence herbicidal activity on POROL (common purslane); format: in vivo, Portulaca oleracea
Summary of the method: as §1

ABUTH [25] = assay: Post-emergence herbicidal activity on ABUTH (velvetleaf); format: in vivo, Abutilon theophrasti; conditions: post-emergence spray; lowest tested rate with 80% or greater inhibition; about 14 days after treatment
Summary of the method: as §2

dicotyledonous species = assay: Pre-emergence test (later test), average GR80 on dicotyledonous species; format: in vivo; conditions: average over dicotyledonous species
Excerpt: as §3, §4, §5

PANDI [26] = assay: Pre-emergence herbicidal activity on PANDI (fall panicum); format: in vivo, Panicum dichotomiflorum
Summary of the method: as §1

POROL [27] = assay: Post-emergence herbicidal activity on POROL (common purslane; table head prints PORAL); format: in vivo, Portulaca oleracea; conditions: post-emergence spray; lowest tested rate with 80% or greater inhibition; about 14 days after treatment
Summary of the method: as §2

BRAPP [28] = assay: Post-emergence herbicidal activity on BRAPP (broadleaf signalgrass); format: in vivo, Brachiaria platyphylla; conditions: post-emergence spray; lowest tested rate with 80% or greater inhibition; about 14 days after treatment
Summary of the method: as §2

ECHCG [29] = assay: Post-emergence herbicidal activity on ECHCG (barnyardgrass); format: in vivo, Echinochloa crus-galli; conditions: post-emergence spray; lowest tested rate with 80% or greater inhibition; about 14 days after treatment
Summary of the method: as §2

CONAR [30] = assay: Pre-emergence herbicidal activity on CONAR (field bindweed); format: in vivo, Convolvulus arvensis
Summary of the method: as §1

CIRAR = assay: Pre-emergence herbicidal activity on CIRAR (canada thistle, seedling); format: in vivo, Cirsium arvense
Summary of the method: as §1

[31] = lowest tested rate giving 80% or greater inhibition, approx. 14 days after planting and treating, greenhouse
[32] = racemic mixture vs enantiomers test, rates tested 1000, 650, 300, 200, 100, 65, 30 and 10 g/ha, lowest rate with 80% or greater inhibition

## CC(CNC(=O)c1cccc(C(F)(F)F)c1)NC(=O)c1cccc(C(F)(F)F)c1 (stereo not shown) [Example 5, N,N′-(1,2-propanediylbis)-3-(trifluoromethyl)benzamide]
SETFA [1]; [31]
  Pre-emergence activity (GR80) on SETFA: * (Where herbicidal activity was evident but 80% inhibition was not achieved at the highest rate tested (typically 1000 g/ha), an asterisk (*) is shown)
SETFA [1]; [32]
  Pre-emergence activity (GR80) SETFA: phyto
CONAR [2]
  Post-emergence activity (GR80) CONAR: 750 g/ha
SETFA [3]
  Post-emergence activity (GR80) SETFA: [empty]
SORVU [4]; [31]
  Pre-emergence activity (GR80) on SORVU: phyto
SORVU [4]; [32]
  Pre-emergence activity (GR80) SORVU: phyto
CHEAL [5]
  Post-emergence activity (GR80) CHEAL: 500 g/ha
Monocotyledonous species
  pre-emergence GR80 on monocotyledonous species: 1041 g/ha
PANMI [6]
  Post-emergence activity (GR80) PANMI: [empty]
BRAPP [7]; [31]
  Pre-emergence activity (GR80) on BRAPP: * (Where herbicidal activity was evident but 80% inhibition was not achieved at the highest rate tested (typically 1000 g/ha), an asterisk (*) is shown)
BRAPP [7]; [32]
  Pre-emergence activity (GR80) BRAPP: phyto
AMARE [8]
  Post-emergence activity (GR80) AMARE: 250 g/ha
AMARE [9]; [31]
  Pre-emergence activity (GR80) on AMARE: 125 g/ha
AMARE [9]; [32]
  Pre-emergence activity (GR80) AMARE: 65 g/ha
DIGSA [10]
  Post-emergence activity (GR80) DIGSA: [empty]
SORHA [11]; [31]
  Pre-emergence activity (GR80) on SORHA: phyto
SORHA [11]; [32]
  Pre-emergence activity (GR80) SORHA: phyto
PANDI [12]
  Post-emergence activity (GR80) PANDI: [empty]
SOLNI [13]; [31]
  Pre-emergence activity (GR80) on SOLNI: 750 g/ha
SOLNI [13]; [32]
  Pre-emergence activity (GR80) SOLNI: 300 g/ha
SOLNI [14]
  Post-emergence activity (GR80) SOLNI: 1000 g/ha
ABUTH [15]; [31]
  Pre-emergence activity (GR80) on ABUTH: 1000 g/ha
ABUTH [15]; [32]
  Pre-emergence activity (GR80) ABUTH: * (Where herbicidal activity was evident but 80% inhibition was not achieved at the highest rate tested (typically 1000 g/ha), an asterisk (*) is shown)
DATST [16]; [31]
  Pre-emergence activity (GR80) on DATST: 500 g/ha
DATST [16]; [32]
  Pre-emergence activity (GR80) DATST: 1000 g/ha
CHEAL [17]; [31]
  Pre-emergence activity (GR80) on CHEAL: 250 g/ha
CHEAL [17]; [32]
  Pre-emergence activity (GR80) CHEAL: 100 g/ha
PANMI [18]; [31]
  Pre-emergence activity (GR80) on PANMI: phyto
PANMI [18]; [32]
  Pre-emergence activity (GR80) PANMI: 650 g/ha
SORHA [19]
  Post-emergence activity (GR80) SORHA: [empty]
SORVU [20]
  Post-emergence activity (GR80) SORVU: [empty]
DATST [21]
  Post-emergence activity (GR80) DATST: 125 g/ha
DIGSA [22]; [31]
  Pre-emergence activity (GR80) on DIGSA: 250 g/ha
DIGSA [22]; [32]
  Pre-emergence activity (GR80) DIGSA: 200 g/ha
ECHCG [23]; [31]
  Pre-emergence activity (GR80) on ECHCG: phyto
ECHCG [23]; [32]
  Pre-emergence activity (GR80) ECHCG: phyto
POROL [24]; [31]
  Pre-emergence activity (GR80) on PORAL: 250 g/ha
POROL [24]; [32]
  Pre-emergence activity (GR80) PORAL: 650 g/ha
ABUTH [25]
  Post-emergence activity (GR80) ABUTH: 1000 g/ha
Dicotyledonous species
  average pre-emergence GR80 on dicotyledonous species: 535 g/ha
PANDI [26]; [31]
  Pre-emergence activity (GR80) on PANDI: 500 g/ha
PANDI [26]; [32]
  Pre-emergence activity (GR80) PANDI: 650 g/ha
POROL [27]
  Post-emergence activity (GR80) PORAL: 750 g/ha
BRAPP [28]
  Post-emergence activity (GR80) BRAPP: [empty]
ECHCG [29]
  Post-emergence activity (GR80) ECHCG: [empty]
CONAR [30]; [31]
  Pre-emergence activity (GR80) on CONAR: phyto
CONAR [30]; [32]
  Pre-emergence activity (GR80) CONAR: phyto
CIRAR; [31]
  Pre-emergence activity (GR80) on CIRAR: 250 g/ha
CIRAR; [32]
  Pre-emergence activity (GR80) CIRAR: * (Where herbicidal activity was evident but 80% inhibition was not achieved at the highest rate tested (typically 1000 g/ha), an asterisk (*) is shown)
